The source of these data is patent US12502428B1, “Immunotherapeutic composition for prevention of obesity, nonalcoholic fatty liver disease and hypertriglyceridemia, and methods of use and preparation thereof” (Utopia Therapeutics Pvt Ltd., priority 2025, dated 2025).

Where no end group is shown, it is not given here.

Data set [1] relates to high-fat fed rat model. The data set can be described thus: Efficacy of the vaccine in high-fat fed rat model.
Excerpt: Species details: species: rats (Wistar); justification: the rats (Wistar) are recognized by the international guidelines as the recommended test system and considerable historical data is available; source: good quality, healthy animals were procured from Hylasco Biotechnology India Pvt Ltd, (Reg. No. 1808/PO/RcBt/S/15/CPCSEA); animal age at the time of randomization: 07-08 weeks; animal weight at the time of randomization: males: 170±20 grams.
Husbandry and diet composition: number of animals: a total number of 6 animals (6M) per group; animal identification: individual cage tags; housing: animals were housed in stainless steel cages, one animal per cage; diet: pelleted rodent feed ad libitum; temperature: 30° C.; humidity: 30 to 70%; light: 12 hours light and 12 hours dark; water: RO purified water, ad libitum; cleaning of cages: twice in a week; acclimatization: the period of acclimatization was a minimum of seven days in the experimental room after the veterinary examination.
Formulation was freshly made just before dosing. For the primer dose of vaccine 3 mg peptide was dissolved in 1 ml of 1×PBS sterile solution to make 3 mg/mL stock solution. 0.4 mL of stock solution was combined with 0.4 mL of complete Freund's adjuvant by vigorous vortexing. For booster doses, the same procedure was followed except that the stock solution was combined with an equal amount of incomplete Freund's adjuvant instead of complete Freund's adjuvant.
Once the drop test was passed (the emulsion drop floated on water intact), the final formulation was administered to rats at 50 μL at each site of injection.
After acclimatization period, body weights of rats were recorded. The rats were randomized based on body weight after quarantine period into two groups n=6 per group as disease control (6M) and treatment group (6M). The disease control and treatment groups were given a high fat diet ad libitum for 8 consecutive weeks while the treatment group received the vaccine doses by intramuscular route as per study design as weekly once dosing for 7 consecutive weeks.
Initial primer dose was given only once during the treatment initiation and the remaining 6 booster doses were administered weekly once to the treatment group animals. Sham group animals received a normal rodent diet fortified with fat. Blood samples were collected on week 0, week 2, week 4, week 6 and week 8 from animals and analyzed for fasting blood glucose, triglycerides, total cholesterol and lipid profile. At every blood collection, 12 hour fasting was maintained for animals. On the final necropsy day, animals were subjected to euthanasia and major organs like liver, heart, lungs, kidneys, testes, spleen, and epididymal fat were collected, weighed and recorded. Half portion of liver was stored immediately in liquid nitrogen and kept at −80° C. for oil red stain and the remaining half was stored in 10% formalin solution, which was taken for histological evaluation by hematoxylin and eosin (H & E) staining.
Blood was centrifuged at 40° C., 4000 RPM for 15 minutes to separate serum and plasma. The serum and plasma samples were analyzed for serum biochemistry and fasting blood glucose respectively. Remaining serum samples were stored at −80° C. until dispatch to the test facility.
General clinical observations were conducted twice daily and detailed clinical observations were conducted once daily.
Data set [2] deals with high-fat fed mice model. As to the kind of experiment: Efficacy of the vaccine in high-fat fed mice model (diet induced obesity, DIO). The data set is classed as in vivo, mice - Balb/c. The source says: This model is often referred to as diet induced obesity (DIO) model.
(§1) IAEC approval: IAEC approval obtained for conducting the study; test item name: UT-GT-001; batch number: G2467-145; date of manufacture: 9 Nov.
The dosage for mice extrapolated using standard guidelines.
Formulation was freshly made just before dosing. […] Immunization of peptide is along with Freund's adjuvant by proper mixing. […] Once the drop test passed (the emulsion drop floated on water as intact), the final formulation was administered to mice with the volume of 300 μl.
Immunization and blood collection. After the acclimatization period, body weights of mice were recorded.
At every blood collection, 12 hours fasting was maintained for animals. […] Blood samples were given to the diagnostic center for different blood parameter analysis.

Data set [3] is described as follows: Solubility of test item in phosphate buffered saline. The settings on record: in phosphate buffered saline (PBS; 1×). It is filed as physicochemical.
Excerpt: The dosage for rats extrapolated using standard guidelines.
as §1

[4] abbreviates: throughout study duration, rats.

On to MRAPGAGAASVVS [vaccine, MRAPGAGAASVVS], for which, in data set [1] (8 week study), the “critical organ weights (toxicology analysis)” value is “no changes”; the “hematocrit (toxicology analysis)” value is “no changes”; the “liver function (AST and ALT) (toxicology analysis)” value was “improvement”. For the same substance, in data set [1] (clinical observations, rats), the adverse clinical signs entry was “no adverse clinical signs were observed”; the hand held observations result is on record as “responded normally”; the home cage observations result was “no abnormalities were observed”; the “nervous and muscle measurements and other observations” value is reported as “No abnormalities observed”. Further, in data set [1] (setting [4]), the open field activity result was “normal” and the stimulus response entry is “normal”. In data set [2], the “abnormalities (clinical observation)” value is on record as “No abnormalities were observed”, the adverse clinical signs entry was “No adverse clinical signs were observed”, the “high fat diet intake” value is on record as “normal” and the water intake entry was “normal”.
Consider “GTX-SP-208: test item of the rat study: peptide, anti-hyperlipidemic agent, powder form, Galore Tx Pharmaceuticals; presumably the FATP1 peptide of the vaccine (MRAPGAGAASVVS)”, for which the solubility in data set [3] worked out at 100%.
The same measure, in the same setting: with “UT-GT-001: test item of the mice study: peptide, anti-hyperlipidemic agent, powder form, Galore Tx Pharmaceuticals; presumably the FATP1 peptide of the vaccine (MRAPGAGAASVVS)” the figure was 100%.
